Test results taken from patent US6552014B2, “Methods of inhibiting platelet activation with selective serotonin reuptake inhibitors” (HeartDrug Research, L.L.C., priority 1999, dated 2003).

What was measured:
Type in all cases: cell-based, human
CD9 = test: Flow cytometry of platelet antigen expression, platelet rich plasma; settings: PRP
From the text: (§1) For ex vivo assessment of the SSRIs effect on a PAM, a level of a PAM can be assessed by flow cytometry by first obtaining a sample that comprises platelets and then contacting the sample with a platelet activation agonist, such as phorbol myristate acetate (PMA), ADP (adenosine diphosphate), thrombin, collagen, and/or TRAP (thrombin receptor activating peptide), under conditions suitable for activation of platelets in the sample. The sample is in contact with the agonist preferably for a period of time effective to maximally activate the platelets. […] NDMS at 31.1, 64.1 or 143 ng./ml). Then one contacts or stains the samples with a composition that comprises an anti-PAM antibody e.g., having a fluorescent label, preferably in an amount in excess of that required to bind the PAM expressed on the platelets, under conditions suitable for the formation of labeled complexes between the anti-PAM antibody and activated platelets. Then the formation of the complex in the sample is determined (detected or measured). […] The blood-ACD mixture was centrifuged at 1000 r.p.m. for 10 minutes at room temperature. […] The PRP was then centrifuged at 3000 r.p.m. for 10 minutes. […] All cells were then divided into ten plastic capped tubes. Nine portions of washed platelets were incubated with 5 μfluorescein isothiocyanate (FITC)-conjugated antibodies in the dark at +4 °C for 30 minutes, and one part remained unstained and served as a negative control. Surface antigen expression was measured with monoclonal murine anti-human antibodies: CD9 (p24); CD41a (IIb/IIIa, aIIIbb3); CD42b (Ib); CD61(IIIa) (DAKO Corporation, Carpinteria Calif.); CD49b (VLA-2, or a2b1); CD62p (P-selectin); CD31 (PECAM-1); […] The instrument was calibrated daily with fluorescence beads (CaliBRITE; Becton Dickinson) and measured FITC-conjugated fluorescence intensity. All parameters were obtained using four decade logarithmic amplification. The data was collected and stored in list mode, and then analyzed using CELLQuest® (version 1.2.2) software. Procedures are described in detail in (Gurbel, P. […] Serebruany, V. […] Gurbel, P. A. et al., Coron Artery Dis 9: 451-456 (1998) and Serebruany, V. L. et al., Arterioscl Thromb Vasc Biol 19: 153-158 (1999)). The data in table 1 was obtained using the methods described herein, and in particular, in Examples 1 and 2. The levels of various PAMs were assess from samples of human volunteers.

CPIa-IIa = test: as above; settings: PRP
From the text: as §1

GP IIb/IIIa = test: as above; settings: PRP
From the text: as §1

GP IIb = test: as above; settings: PRP
From the text: as §1

GP Ib = test: as above; settings: PRP
From the text: as §1

PECAM-1 = test: as above; settings: PRP
From the text: as §1

platelets = test: Platelet aggregation in platelet rich plasma (ADP or collagen); settings: PRP; post-coronary angioplasty patient; activated with ADP or collagen
Protocol: Trisodium citrate (3.8%) and whole blood is immediately mixed in a 1:9 ratio, and then centrifuged at 1200 g for 2.5 minutes, to obtain platelet-rich plasma (PRP), which is kept at room temperature for use within 1 hour for platelet aggregation studies. Platelet count is determined in each PRP sample with a Coulter Counter ZM (Coulter Co., Hialeah, Fla.). Platelet numbers are adjusted to 3.50×10^8/ml for aggregation with homologous platelet-poor plasma. PRP and whole blood aggregation tests are performed simultaneously. Whole blood is diluted 1.1 with the 0.5 ml PBS, and then swirled gently to mix . The cuvette with the stirring bar is placed in the incubation well and allowed to warm to 37° C. for 5 minutes. Then the sample are transferred to the assay well. An electrode is placed in the sample cuvette. Platelet aggregation is stimulated with 5 μM ADP, 1 μg/ml collagen, and 0.75 mM arachidonic acid. All agonists are obtained from Chronolog Corporation (Hawertown, Pa.). Platelet aggregation studies are performed using a Chrono-Log Whole Blood Lumi-Aggregometer (model 560 -Ca). Platelet aggregability are expressed as the percentage of light transmittance change from baseline using platelet-poor plasma as a reference at the end of recording time for plasma samples, or as a change in electrical impedance for whole blood samples. Aggregation curves are recorded for 4 minutes and analyzed according to internationally established standards using Aggrolinkg® software.

[1] = healthy volunteers, desmethylsertraline 31.1 ng/ml
[2] = healthy volunteers, desmethylsertraline 64.2 ng/ml
[3] = healthy volunteers, desmethylsertraline 143 ng/ml
[4] = post-angioplasty patient on aspirin, desmethylsertraline 31.1 ng/ml
[5] = post-angioplasty patient on aspirin, desmethylsertraline 64.2 ng/ml
[6] = post-angioplasty patient on aspirin, desmethylsertraline 143 ng/ml

In the case of `N[C@H]1CC[C@@H](c2ccc(Cl)c(Cl)c2)c2ccccc21` [Desmethyl sertraline, N-desmethylsertraline], the “CD9 (mean) log fluorescence intensity” value (CD9; [1]) is reported as 728, the “CD9 (peak) log fluorescence intensity” value (CD9; [1]) is reported as 620 and the “CD9 (peak) log fluorescence intensity” value (CD9; [2]) is reported as 805. The “CD9 (mean) log fluorescence intensity” value (CD9; [3]) was 837, the “CD9 (peak) log fluorescence intensity” value (CD9; [3]) was 770 and the “CD9 (mean) log fluorescence intensity” value (CD9; [4]) was 908. For the same molecule, the “CD9 (peak) log fluorescence intensity” value (CD9; [4]) was 1046, the “CD9 (mean) log fluorescence intensity” value (CD9; [5]) was 927 and the “CD9 (peak) log fluorescence intensity” value (CD9; [5]) was 930. For the same molecule, the “CD9 (mean) log fluorescence intensity” value (CD9; [6]) was 853, the “CD9 (peak) log fluorescence intensity” value (CD9; [6]) was 850 and the “CPIa-IIa (mean) log fluorescence intensity” value (CPIa-IIa; [1]) was 41. The “CPIa-IIa (peak) log fluorescence intensity” value (CPIa-IIa; [1]) was 42, the “CPIa-IIa (mean) log fluorescence intensity” value (CPIa-IIa; [3]) was 43 and the “CPIa-IIa (peak) log fluorescence intensity” value (CPIa-IIa; [3]) was 40. For the same molecule, the “CPIa-IIa (mean) log fluorescence intensity” value (CPIa-IIa; [4]) was 62, the “CPIa-IIa (peak) log fluorescence intensity” value (CPIa-IIa; [4]) was 59 and the “CPIa-IIa (mean) log fluorescence intensity” value (CPIa-IIa; [5]) was 62. For the same molecule, the “CPIa-IIa (peak) log fluorescence intensity” value (CPIa-IIa; [5]) was 53, the “CPIa-IIa (mean) log fluorescence intensity” value (CPIa-IIa; [6]) was 40 and the “CPIa-IIa (peak) log fluorescence intensity” value (CPIa-IIa; [6]) was 48. For the same molecule, the “GP IIb/IIIa (mean) log fluorescence intensity” value (GP IIb/IIIa; [1]) was 580, the “GP IIb/IIIa (peak) log fluorescence intensity” value (GP IIb/IIIa; [1]) was 457 and the “GP IIb/IIIa (mean) log fluorescence intensity” value (GP IIb/IIIa; [2]) was 743. The “GP IIb/IIIa (peak) log fluorescence intensity” value (GP IIb/IIIa; [2]) was 649, the “GP IIb/IIIa (mean) log fluorescence intensity” value (GP IIb/IIIa; [3]) was 708 and the “GP IIb/IIIa (peak) log fluorescence intensity” value (GP IIb/IIIa; [3]) was 509. For the same molecule, the “GP IIb/IIIa (mean) log fluorescence intensity” value (GP IIb/IIIa; [4]) was 948, the “GP IIb/IIIa (peak) log fluorescence intensity” value (GP IIb/IIIa; [4]) was 791 and the “GP IIb/IIIa (mean) log fluorescence intensity” value (GP IIb/IIIa; [5]) was 918. For the same molecule, the “GP IIb/IIIa (peak) log fluorescence intensity” value (GP IIb/IIIa; [5]) was 777, the “GP IIb/IIIa (mean) log fluorescence intensity” value (GP IIb/IIIa; [6]) was 836 and the “GP IIb/IIIa (peak) log fluorescence intensity” value (GP IIb/IIIa; [6]) was 716. The “GP IIb (mean) log fluorescence intensity” value (GP IIb; [1]) was 33, the “GP IIb (peak) log fluorescence intensity” value (GP IIb; [1]) was 31 and the “GP IIb (peak) log fluorescence intensity” value (GP IIb; [2]) was 31. The “GP IIb (mean) log fluorescence intensity” value (GP IIb; [3]) was 30, the “GP IIb (peak) log fluorescence intensity” value (GP IIb; [3]) was 35 and the “GP IIb (mean) log fluorescence intensity” value (GP IIb; [4]) was 24. For the same molecule, the “GP IIb (peak) log fluorescence intensity” value (GP IIb; [4]) was 21, the “GP IIb (mean) log fluorescence intensity” value (GP IIb; [5]) was 22 and the “GP IIb (mean) log fluorescence intensity” value (GP IIb; [6]) was 29. For the same molecule, the “GP IIb (peak) log fluorescence intensity” value (GP IIb; [6]) was 25, the “GP Ib (mean) log fluorescence intensity” value (GP Ib; [1]) was 146 and the “GP Ib (peak) log fluorescence intensity” value (GP Ib; [1]) was 94. The “GP Ib (mean) log fluorescence intensity” value (GP Ib; [2]) was 299, the “GP Ib (peak) log fluorescence intensity” value (GP Ib; [2]) was 266 and the “GP Ib (mean) log fluorescence intensity” value (GP Ib; [3]) was 309. For the same molecule, the “GP Ib (peak) log fluorescence intensity” value (GP Ib; [3]) was 336, the “GP Ib (mean) log fluorescence intensity” value (GP Ib; [4]) was 167 and the “GP Ib (peak) log fluorescence intensity” value (GP Ib; [4]) was 165. For the same molecule, the “GP Ib (mean) log fluorescence intensity” value (GP Ib; [5]) was 198, the “GP Ib (peak) log fluorescence intensity” value (GP Ib; [5]) was 167 and the “GP Ib (mean) log fluorescence intensity” value (GP Ib; [6]) was 222. For the same molecule, the “GP Ib (peak) log fluorescence intensity” value (GP Ib; [6]) was 201, the “PECAM-1 (mean) log fluorescence intensity” value (PECAM-1; [1]) was 74 and the “PECAM-1 (peak) log fluorescence intensity” value (PECAM-1; [1]) was 60. For the same molecule, the “PECAM-1 (mean) log fluorescence intensity” value (PECAM-1; [2]) was 101, the “PECAM-1 (mean) log fluorescence intensity” value (PECAM-1; [3]) was 81 and the “PECAM-1 (peak) log fluorescence intensity” value (PECAM-1; [3]) was 74. For the same molecule, the “PECAM-1 (mean) log fluorescence intensity” value (PECAM-1; [4]) was 94, the “PECAM-1 (peak) log fluorescence intensity” value (PECAM-1; [4]) was 83 and the “PECAM-1 (mean) log fluorescence intensity” value (PECAM-1; [6]) was 90. For the same molecule, the “PECAM-1 (peak) log fluorescence intensity” value (PECAM-1; [6]) was 84 and the “platelet aggregation in PRP (FIGS. 5 and 6), in words” value (platelets) was “decrease in platelet aggregation”.
